This note sets out measurements from patent US8435929B2, “1-aminocyclopropane carboxylic acid as a fruit thinner” (Valent BioSciences Corporation, priority 2009, dated 2013).

For one data set, the system named is Babygold #5 peaches. Description: Scaffold gummosis rating of Babygold #5 peaches. It is filed as in vivo, peach. From the text: Gummosis is a physiological stress response in which sap oozes from fractures in tree bark and often leads to tree decline. Use of 2-chloroethylphosphonic acid as a stone fruit thinning has been limited because it can stimulate severe incidences of gummosis of stone fruit.

In another data set the test system is cotton cotyledons. Description: Cotton cotyledon bioassay, ethylene production. Format: in vivo. From the text:
For laboratory and growth chamber studies, deionized ultra-pure water was used in preparing solutions. Spray solutions were used as soon as possible after mixing. All spray solutions were amended with spray adjuvants as appropriate. A cotton cotyledon bioassay was used in the laboratory to study the effects of ACC or ethephon on induction of ethylene. Ten day old cotton plants with fully expanded cotyledons were used. Sprays were made to the upper (adaxial) surface of the leaves and the plants were then incubated in growth cabinets at the temperatures indicated. The cotyledons were excised at the times indicated and placed in sealed plastic vials. Headspace ethylene samples were measured on a Hewlett Packard 5890 gas chromatograph equipped with a packed Haysep T column (Alltech, Deerfield, Ill.) and a flame ionization detector.
Selected characteristics of ACC conversion to ethylene (i.e. dose response, time course, and temperature effect) were assessed to determine whether the relative consistence of ACC as a stone fruit and apple thinner was related to performance as an ethylene producer. In these bioassays, ACC solutions were applied to cotton cotyledons by a hand sprayer at the doses indicated and all spray solutions contained 0.05% (v/v) L-77.
In the first study, the effect of ACC dose sprays on ethylene produced by cotton cotyledons was determined. (Table 16). Cotton plants were sprayed with solution (ACC at 1, 10, 25, 50, 100, 250, 500, or 1000 ppm) and the cotyledons were excised 6 or 24 h after spraying and incubated in sealed tubes for 4 h. Ethylene levels were determined production was assayed.
In the second study, the time course of ethylene production following application of 500 mg/liter ACC or ethephon was determined (Table 17).
In the third study, the effect of temperature on ethylene production following ACC or ethephon application was determined (Table 18). The incubation of the plants following spraying and the incubation of the detached leaves were performed at 25 and 35° C.

Another data set relates to Babygold #5 peach. Description: Field thinning study, fruit set of Babygold #5 peach. The note with it: rate not given, 10 mm fruitlet timing. It is filed as in vivo.
Another data set has as its system PF-27 peaches. Description: Field thinning study, ACC and ABA, fruit set of PF-27 peaches. The note with it: 1000 ppm, application at shuck split. Format: in vivo, peach. From the text:
Application of ACC alone at shuck split reduced fruit set in a dose dependent manner (Table 10).

Regarding `O=P(O)(O)CCCl` [Ethephon, 2-chloroethylphosphonic acid, reference compound], the “Gummosis (in words)” value in the data set on Babygold #5 peaches (Babygold #5 peaches, Table 11 study) is given as “substantially increased gummosis”. For the same compound, the “Scaffold Gummosis (0 = no gummosis to 5 = severe gummosis)” value in the data set with Babygold #5 peaches (rate not given, 10 mm fruitlet timing, scale 0-5) was found to be 4.7. The Ethylene production with cotton cotyledons (200 ppm, 24 h after application, incubated at 25 C) is on record as 41.0 nl/g leaf weight/h incubated; in the data set with cotton cotyledons (200 ppm, 24 h after application, incubated at 35 C), 133.1 nl/g leaf weight/h incubated; in the data set on cotton cotyledons (500 ppm, 1 h following spray application, 25 C (time course)), 153.4 nl/g leaf weight/h incubated; in the data set with cotton cotyledons (500 ppm, 4 h following spray application, 25 C (time course)) it was 102.5 nl/g leaf weight/h incubated; with cotton cotyledons (500 ppm, 15 h following spray application, 25 C (time course)), 106.0 nl/g leaf weight/h incubated; with cotton cotyledons (500 ppm, 24 h following spray application, 25 C (time course)) it was 90.8 nl/g leaf weight/h incubated. In addition, in the data set with cotton cotyledons (500 ppm, 48 h following spray application, 25 C (time course)), the Ethylene production is reported as 58.5 nl/g leaf weight/h incubated. Further, the “Percent Fruit Set” value with Babygold #5 peach is recorded as 8.4%.
With `CC1=CC(=O)CC(C)(C)[C@@]1(O)/C=C/C(C)=C\C(=O)O` [ABA, abscisic acid, reference compound], in the data set on PF-27 peaches, the “Crop load (percent) of treated trees compared to the untreated control” value turned out to be 80% and the Percent fruit set amounted to 69%.
